biological target: reverse-transcriptase of mouse Sarcoma virus (Moloney murine leukemia virus, UniProt P03355); assay: Effect for inhibiting reverse-transcriptase of mouse Sarcoma virus; assay type: biochemical; conditions: 300 μg/ml; virus protein (MLV-moloney), 37° C. 60 minutes
Protocol: Effect for inhibiting reverse-transcriptase of mouse Sarcoma virus.
The effect for inhibition was determined as follows:
Methanol solution containing each active ingredient at a concentration of 6 mg/ml.
Solution containing 240 μg of virus protein (MLV-moloney) in 1 ml of a buffer solution of 20 mM-tris-hydrochloric acid (pH 7.8), 0.1 M-sodium chloride and 1 mM of dithiotersitol (DTT).
Reaction medium containing 46 mM tris-hydrochloric acid (pH 8.1) 92 mM potassium chloride, 15.4 mM manganese chloride, 0.77 mM-dATP, 0.77 mM-dCTP, 0.77 mM-dGTP, 0.23 μM-3H-TTP (50 ci/mM), 7.7 mM-DTT and 0.038% NP-40.
The reaction mixture was prepared by sequentially admixing (a) 5 μl, with (b) 30 μl and (c) 65 μl and the mixture was thoroughly mixed and kept at 0° C. for 5 minutes. Then, the reaction mixture was kept at 37° C. for 60 minutes and 1 ml of cold 10% trichloroacetic acid solution was added to the reaction mixture to stop the reaction. The mixture was kept at 0° C. for 20 minutes and an insoluble components were collected on each Whatman's paper GF/c (diameter of 2.5 cm) and washed with 5 ml of cold 5% trichloroacetic acid. The residue was dried in an oven at 80° C. and charged in a viral bottle containing 10 ml of toluene solution containing scintillator PPO-POPOP, and radioactivity was measured by a scintillation spectrometer.

Compound	Percent inhibition (%)
19-O-benzyl atropisodamavaricin Fc (containing 19-O-benzyl damavaricin Fc) [Example 2]	67%
19-O-methyl-atropisodamavaricin Fc (containing 19-O-methyl damavaricin Fc) [Example 1]	41%

same assay, conditions: read-out: Percent inhibition (%)

Compound	inhibition at 300 µg/mL
CCCOc1c(C)c(O)c2c3c1C(=O)C(C)=CC(C)(O)C(O)C(C)C(O)C1C(=O)OC(C(C)C=CC=C(C)C(=O)NC(=C(C)C3=O)C2=O)C(C)C1O (stereo not drawn) [Example 5]	52%
CCCCOc1c(C)c(O)c2c3c1C(=O)C(C)=CC(C)(O)C(O)C(C)C(O)C1C(=O)OC(C(C)C=CC=C(C)C(=O)NC(=C(C)C3=O)C2=O)C(C)C1O (stereo not drawn) [Example 6]	78%
CCOc1c(C)c(O)c2c3c1C(=O)C(C)=CC(C)(O)C(O)C(C)C(O)C1C(=O)OC(C(C)C=CC=C(C)C(=O)NC(=C(C)C3=O)C2=O)C(C)C1O (stereo not drawn) [Example 4]	60%
CC(=O)COc1c(C)c(O)c2c3c1C(=O)C(C)=CC(C)(O)C(O)C(C)C(O)C1C(=O)OC(C(C)C=CC=C(C)C(=O)NC(=C(C)C3=O)C2=O)C(C)C1O (stereo not drawn) [Example 24]	58%
CC1=CC=CC(C)C2OC(=O)C(C(O)C2C)C(O)C(C)C(O)C(C)(O)C=C(C)C(=O)c2c(OC3CCCCC3)c(C)c(O)c3c2C(=O)C(C)=C(NC1=O)C3=O (stereo not drawn) [Example 22]	45%
C=CCOc1c(C)c(O)c2c3c1C(=O)C(C)=CC(C)(O)C(O)C(C)C(O)C1C(=O)OC(C(C)C=CC=C(C)C(=O)NC(=C(C)C3=O)C2=O)C(C)C1O (stereo not drawn) [Example 20]	65%
CCCCCCOc1c(C)c(O)c2c3c1C(=O)C(C)=CC(C)(O)C(O)C(C)C(O)C1C(=O)OC(C(C)C=CC=C(C)C(=O)NC(=C(C)C3=O)C2=O)C(C)C1O (stereo not drawn) [Example 8]	60%
CCCCCCCCOc1c(C)c(O)c2c3c1C(=O)C(C)=CC(C)(O)C(O)C(C)C(O)C1C(=O)OC(C(C)C=CC=C(C)C(=O)NC(=C(C)C3=O)C2=O)C(C)C1O (stereo not drawn) [Example 10]	41%
CCCCCOc1c(C)c(O)c2c3c1C(=O)C(C)=CC(C)(O)C(O)C(C)C(O)C1C(=O)OC(C(C)C=CC=C(C)C(=O)NC(=C(C)C3=O)C2=O)C(C)C1O (stereo not drawn) [Example 7]	52%
CC1=CC=CC(C)C2OC(=O)C(C(O)C2C)C(O)C(C)C(O)C(C)(O)C=C(C)C(=O)c2c(OCC(=O)c3ccccc3)c(C)c(O)c3c2C(=O)C(C)=C(NC1=O)C3=O (stereo not drawn) [Example 30]	50%
CCCCCCCCCCCOc1c(C)c(O)c2c3c1C(=O)C(C)=CC(C)(O)C(O)C(C)C(O)C1C(=O)OC(C(C)C=CC=C(C)C(=O)NC(=C(C)C3=O)C2=O)C(C)C1O (stereo not drawn) [Example 13]	78%

system: mouse; assay: Acute toxicity (LD50) in mouse; assay type: in vivo; conditions: intramuscular injection
Protocol: Acute toxicity of the novel streptovaricin C derivatives (I) are remarkably low level. For example, 19-O-methyl compound (I) has LD50 to mouse of more than 1000 mg/kg in intramuscular injection and more than 3000 mg/kg in oral dose.

Compound	LD50
19-O-methyl-atropisodamavaricin Fc (containing 19-O-methyl damavaricin Fc) [Example 1]	more than 1000 mg/kg

same assay, conditions: oral dose

Compound	LD50
19-O-methyl-atropisodamavaricin Fc (containing 19-O-methyl damavaricin Fc) [Example 1]	more than 3000 mg/kg

Source: patent US4212881A, “Streptovaricin C derivatives” (priority 1978, dated 1980)
